# Reference: patent US20230117947A1, “Seed Treatment Methods and Compositions” (Novozymes BIOAG A/S, priority 2011, published 2023)
# Marks after values point to notes of the source that are not given here.
# Legend:
# Type in all cases: in vivo
# [1] = test system: soybean seed (Stine S2118); test: Field trial (Example 1): grain yield from treated soybean seed, Whitewater, Wis.; details: for GRAIN YIELD @ 13%: 4.8 fl oz/cwt, 13% seed moisture
# Description: A field trial was conducted to evaluate embodiments of the present invention on grain yield when applied on soybean seed. The field trial site was located near Whitewater, Wis. and characterized by Milford silty clay loam soil.
# The plant signal molecules used in the trial were Optimize®, a non-commercial grade of Optimize® (NI-50S-1), pure LCO-V (C18:1, MeFuc)(NI-50GREN-1) and a non-commercial grade of LCO-V (C18:1, MeFuc)(NI-50S-2CF). The soybean seed used in the study was Stine S2118. The plant signal molecules were sprayed onto seeds with/without dilution at a rate of 4.8 fl oz/cwt.
# The study was conducted in a randomized complete block design, with a plot size of 10 feet by 50 feet (0.011 acres), with 7.5-inch row spacing. Four replications were conducted. Seed were treated with the plant signal molecules 4.5 or 5 months prior to planting and just prior to planting, and were planted at a depth of 1 inch and at a seedling rate of 225,000 seeds per acre using a John Deere 750 NT grain drill. The pesticides Extreme® and AMPS® were both applied 11 days prior to planting (pre-emergence) at rates of 3.0 pt and 2.5 lb, respectively. Assure II®, Roundup WeatherMax® and AMPS® were all applied 46-days post-planting (post-emergent), at rates of 6.0 oz, 21 oz and 2.5 lb, respectively. Plants were harvested 4 months and 20 days after planting.
# The Control seed was treated with an amount (wt) of water, corresponding to the amount (wt) of the experimental signal molecule composition (signal molecule+carrier). The Control seed was stored under the same conditions as the experimental seed prior to planting and planted at the same time as the experimental seed in the same soil.
# [2] = test system: soybean seed (Stine 52118); test: Field trial (Example 2): grain yield from treated soybean seed, Whitewater, Wis.; details: for GRAIN YIELD @ 13%: 4.8 fl oz/cwt, 13% seed moisture
# Description: A soybean trial was conducted to evaluate embodiments of the present invention on grain yield when applied on soybean seed. The field trial site was located near Whitewater, Wis. and characterized by Milford silty clay loam soil. […] The plant signal molecules used in the trial were same as in Example 1. The soybean seed used in the study was Stine 52118. The plant signal molecules were sprayed onto seeds with/without dilution at a rate of 4.8 fl oz/cwt. The study was conducted in a randomized complete block design, with a plot size of 10 feet by 50 feet (0.011 acres), with 7.5-inch row spacing. Four replications were conducted. Seed were treated with the plant signal molecules 4.5 or 5 months prior to planting and just prior to planting, and were planted at a depth of 1 inch and at a seedling rate of 225,000 seeds per acre using a John Deere 750 NT grain drill. The pesticides Extreme® and AMPS® were both applied 10 days prior to planting (pre-emergence) at rates of 3.0 pt and 2.5 lb, respectively. Assure II®, Roundup WeatherMax® and AMPS® were all applied 45-days post-planting (post-emergent), at rates of 6.0 oz, 21 oz and 2.5 lb, respectively. Plants were harvested 4 months and 21 days after planting. The Control seed was treated with an amount (wt) of water, corresponding to the amount (wt) of the experimental signal molecule composition (signal molecule+carrier). The Control seed was stored under the same conditions as the experimental seed prior to planting and planted at the same time as the experimental seed in the same soil.
# Soybean seeds = test: Greenhouse test (Example 3): root length and root volume of seedlings from stored treated seed (Winrhizo scanner); details: for % increase in root length / % increase in root vol.: versus Control; for Root Vol. / Root length: 10^−7M, stored at 15° C., harvested after 10 days
# Description: Soybean seeds treated with 10^−7M pure LCO-V (C18:1, MeFuc) and stored at 15° C. Treated seeds and non-treated seeds (control) were planted 1 and 12 months after treatment in greenhouse pots containing sand:perlite (1:1 mixture). Seedlings were grown for 10 days after seed plantings then seedlings were harvested, their roots cleaned and measured on the Winrhizo® scanner. The Control seed was treated with an amount (wt) of water, corresponding to the amount (wt) of the experimental signal molecule composition (signal molecule+carrier). The Control seed was stored under the same conditions as the experimental seed prior to planting and planted at the same time as the experimental seed in the same soil.
# [3] = 5 months pre-planting (Group 5) versus at planting (Group 4)
# [4] = seed treated 5 months prior to planting
# [5] = planted 1 month after treatment
substance,measurement,setting,value
"LCO-V (C18:1, MeFuc) [NI-50GREN-1]",increase in soybean yield,[1]; [3],8.3 bushels/acre
same,GRAIN YIELD @ 13%,[1]; [4],70.5 bushels/acre
same,GRAIN YIELD @ 13%,[1]; seed treated at planting,62.2 bushels/acre
same,decrease in soybean yield,[2]; [3],1.8 bushels/acre
same,GRAIN YIELD @ 13%,[2]; [4],64.0 bushels/acre
same,GRAIN YIELD @ 13%,[2]; seed treated at planting,65.8 bushels/acre
same,% increase in root length,Soybean seeds; 1 month after treatment,5.46%
same,% increase in root vol.,Soybean seeds; 1 month after treatment,2.86%
same,% increase in root length,Soybean seeds; 1 yr after treatment,37.92%
same,% increase in root vol.,Soybean seeds; 1 yr after treatment,34%
same,Root Vol.,Soybean seeds; [5],0.468 cm^3
same,Root length,Soybean seeds; [5],135* cm
same,Root Vol.,Soybean seeds; planted 1 yr after treatment,0.540* cm^3
same,Root length,Soybean seeds; planted 1 yr after treatment,159.3* cm
